Data reported in article PMC11647902, “Design, Synthesis, and Biological Evaluation of [1,2,5]Oxadiazolo[3,4-b]pyridin-7-ol as Mitochondrial Uncouplers for the Treatment of Obesity and Metabolic Dysfunction-Associated Steatohepatitis” (Journal of Medicinal Chemistry, 2024).

Tests used:
L6 rat myoblasts = experiment: OCR Seahorse assay (oxygen consumption rate, mitochondrial uncoupling); settings: for EC50 / Emax at 200 µM: Rattus norvegicus; for EC50: L6; for Emax at 200 µM: L6, read-out: % of BAM15 OCR, L6 myoblasts, integrated area under OCR dose curve above baseline relative to BAM15 of same experiment, NA = No Activity, highest tested concentration 200 μM; for uncoupling (OCR) activity in words: L6 myoblasts
Experimental: With 7 and 9 derivatives in hand, we screened for mitochondrial uncoupling activity as a function of oxygen consumption rate (OCR). […] OCR was measured using an Agilent Seahorse XF24 or XFe96 Analyzer (Agilent Technologies, Santa Clara, CA). L6 myoblasts were seeded in a Seahorse 24 or 96-well tissue culture plate at a density of 3.5 × 10^4 cells/well. The cells were then allowed to adhere overnight. […] Compounds were injected during the assay, and OCR was measured using 2 min measurement periods. Cells were treated with a single drug concentration per well and measured over a 90 min period. Two wells were used per condition and, where applicable, results from multiple plates were averaged together. The first three measurements after injection for each concentration were averaged to produce a dose curve. […] AUC values were also calculated using the same software.

in vivo = settings: male, C57BL/6, mouse, plasma, po, 10 mg/kg
L6 myoblast cells = experiment: Mitochondrial stress test and self-limiting test (OCR); settings: L6 myoblasts
GAN mouse model of MASH = experiment: Gubra-Amylin NASH (GAN) diet mouse model of MASH; type: in vivo
[1] = design: method as in PMID 38629387; settings: STEP-1 clinical trials; cited from earlier work
[2] = 200 mg kg^–1 in GAN diet, 4 weeks

Cmax at 24 h (in vivo) [µM]	half-life at 24 h (in vivo) [h]	Compound	EC50 (L6 rat myoblasts) [nM]	Emax at 200 µM (L6 rat myoblasts) [%]	also measured
4	0.9 ± 0.34	Oc1c(Nc2ccc(-c3cccc(F)c3)cc2)cnc2nonc12 [7al, 6-((3′-Fluoro-[1,1′-biphenyl]-4-yl)amino)-[1,2,5]oxadiazolo[3,4-b]pyridin-7-ol]	1200 ± 100	36	
6	0.9 ± 0.07	Oc1c(Nc2ccc(-c3ccc(F)cc3)cc2)cnc2nonc12 [7ao, 6-((4′-Fluoro-[1,1′-biphenyl]-4-yl)amino)-[1,2,5]oxadiazolo[3,4-b]pyridin-7-ol]	1700 ± 200	< 50	
4	1.8 ± 0.25	Oc1c(Nc2ccc(-c3ccc(Cl)cc3)cc2)cnc2nonc12 [7ap, 6-((4′-Chloro-[1,1′-biphenyl]-4-yl)amino)-[1,2,5]oxadiazolo[3,4-b]pyridin-7-ol]	900 ± 100	< 50	
		Oc1c(-c2cccs2)cnc2nonc12 [9g, 6-(Thiophen-2-yl)-[1,2,5]oxadiazolo[3,4-b]pyridin-7-ol]	40000 ± 300	36	uncoupling (OCR) activity in words (L6 rat myoblasts): poor activity
		Oc1c(-c2ccc(-c3ccc(F)cc3)cc2)cnc2nonc12 [9h, 6-(4′-Fluoro-[1,1′-biphenyl]-4-yl)-[1,2,5]oxadiazolo[3,4-b]pyridin-7-ol]			uncoupling (OCR) activity in words (L6 rat myoblasts): inactive
		semaglutide			loss of lean mass [1]: up to 40%

Compound	Cmax at 24 h (in vivo) [µM]	half-life at 24 h (in vivo) [h]	EC50 (L6 rat myoblasts) [nM]	Emax at 200 µM (L6 rat myoblasts) [%]	also measured
Oc1c(Nc2ccc(-c3cccc(Cl)c3)cc2)cnc2nonc12 [SHO1122147, 6-((3′-Chloro-[1,1′-biphenyl]-4-yl)amino)-[1,2,5]oxadiazolo[3,4-b]pyridin-7-ol]	35	2 ± 0.07	3600 ± 100	55	respiration (OCR) in self-limiting test (L6 myoblast cells; SHO1122147 10 μM, BAM15 1.1 μM): 200%; OCR after blockade with oligomycin (L6 myoblast cells; oligomycin 1 μM, then SHO1122147 10 μM or BAM15 1.1 μM at t = 40 min): increased OCR; loss of body weight (GAN mouse model of MASH; 200 mg kg^–1 admixed in GAN diet, 4 weeks): 15.4%; fat mass as percent of body weight (EchoMRI) (GAN mouse model of MASH; [2]): lowering fat mass; fat-free lean mass as percent of body weight (EchoMRI) (GAN mouse model of MASH; [2]): increasing fat-free lean mass; liver mass (GAN mouse model of MASH; [2]): no significant change; liver triglycerides (GAN mouse model of MASH; [2]): decreased; plasma alanine aminotransferase (ALT) (GAN mouse model of MASH; [2]): decreased; fibrosis stage (GAN mouse model of MASH; 200 mg kg^–1 in GAN diet, 4 weeks, compared to GAN controls): No changes; MAFLD activity score (GAN mouse model of MASH; 200 mg kg^–1 in GAN diet, 4 weeks, primarily due to decreased hepatic steatosis): significant decrease; caloric intake (GAN mouse model of MASH; 200 mg kg^–1 in GAN diet, food intake monitored daily): no significant changes; body temperature (GAN mouse model of MASH; 200 mg kg^–1 day^–1): without changes in body temperature
